Measurements: patent US10844404B2, “Engineered microorgansims and methods for improved crotyl alcohol production” (priority 2015, dated 2020)

Key:
[1] = test system: E. coli Str. K-12 substr. MG1655 strains; assay: Crotyl alcohol tolerance study (Bioscreen growth curves, turbidity OD420-580); assay type: cell-based; conditions: 138 mM crotyl alcohol, M9+11.1 mM glucose, 37° C., FIG. 4B
Experimental: (§1) E. coli Str. K-12 substr. MG1655 strains 48 (wildtype) and 3-FEDB with multiple deletions (ΔyahkΔadhPΔyqhDΔadhE); and E. coli ATCC 8739 C strains (wildtype) and its variants 3-FISC (ΔadhE), 3-GAEB (ΔadhEΔyqhD), 3-GBOG (ΔadhEΔyqhDΔadhP), and 3-GDOB (ΔadhEΔyqhDΔadhPΔyahK) were struck for single colonies on LB agar from a glycerol freezer stock. Four single colonies per strain were picked and inoculated into 1 mL LB+55.7 mM glucose in deep well 96 well plates and grown at 37° C. overnight (16-20 hours). The optical density of the overnight culture was taken and cells were normalized to OD600=1 and spun down. Cells were resuspended in 1 mL of M9 minimal media+11.1 mM glucose. Cells were then spun down and washed again in 1 mL M9+11.1 mM glucose. Bioscreen honeycomb 2 plates (Cat. No. 9502550) were filled with 198 μL M9+11.1 mM glucose or M9+11.1 mM glucose+138 mM crotyl alcohol (Sigma-Aldrich). 2 μL washed cells were added to each well at N=4. Bioscreen honeycomb 2 plates were loaded into a bioscreen C MBR (Oy Growth Curves Ab Ltd) machine, an incubator system set to read turbidity at OD420-580 every 15 minutes at 37° C. For growth curve data, see FIG. 4A (E. coli Str. K-12 substr. MG1655 strains) and FIG. 4B (E. coli ATCC 8739 C variant strains).

[2] = test system: E. coli ATCC 8739 C strains; assay: as above; assay type: cell-based; conditions: 138 mM crotyl alcohol, FIG. 5B
Experimental: as §1

With `CC=CCO` [crotyl alcohol, but-2-en-1-ol] the “growth in the presence of crotyl alcohol” value ([1]; strain 3-FEDB (ΔyahKΔadhPΔyqhDΔadhE)) was “while showing an initial lag grew on crotyl alcohol”, the “growth in the presence of crotyl alcohol” value ([1]; wild-type or parental strain (48)) was “growth is inhibited” and the “growth in the presence of crotyl alcohol” value ([2]; M9+11.1 mM glucose, 37° C., wild-type or parental strain) was “growth is inhibited”. The “growth in the presence of crotyl alcohol” value ([2]; strain 3-FIDC (ΔadhE)) was “inhibited”, the “growth in the presence of crotyl alcohol” value ([2]; strain 3-GAEB (ΔadhEΔyqhD)) was “inhibited” and the “growth in the presence of crotyl alcohol” value ([2]; strain 3-GBOB (ΔadhEΔyqhDΔadhP)) was “while showing an initial lag grew on crotyl alcohol”. The “growth in the presence of crotyl alcohol” value ([2]; strain 3-GBOG (ΔyahKΔadhPΔyqhDΔadhE)) was “while showing an initial lag grew on crotyl alcohol”.
